Laboratory results taken from patent US20170100374A1, “POTENTIATOR-CORRECTOR COMBINATIONS USEFUL IN THE TREATMENT OF CYSTIC FIBROSIS” (AbbVie S.à.r.l., priority 2015, published 2017).

What was measured:
F508del-CFTR = target: T1, F508del-CFTR (Homo sapiens, UniProt P13569, DEL508-508); settings: patients having F508del-CFTR class II mutation (Flume et al., 2012); cited from earlier work
T1 construct: host or cells: CF patients

CFTR = settings: patients with CF (Wilschanski et al., 2003); cited from earlier work
[1] = target: T2, HEK293 wild type CFTR membrane fractions (Homo sapiens, UniProt P13569); assay: Back-Scattering Interferometry (Molecular Sensing) binding to CFTR membrane fractions
T2 construct: expressed in transfected cells; host or cells: HEK293 (membrane fractions)
T2 sequence (P13569 whole entry): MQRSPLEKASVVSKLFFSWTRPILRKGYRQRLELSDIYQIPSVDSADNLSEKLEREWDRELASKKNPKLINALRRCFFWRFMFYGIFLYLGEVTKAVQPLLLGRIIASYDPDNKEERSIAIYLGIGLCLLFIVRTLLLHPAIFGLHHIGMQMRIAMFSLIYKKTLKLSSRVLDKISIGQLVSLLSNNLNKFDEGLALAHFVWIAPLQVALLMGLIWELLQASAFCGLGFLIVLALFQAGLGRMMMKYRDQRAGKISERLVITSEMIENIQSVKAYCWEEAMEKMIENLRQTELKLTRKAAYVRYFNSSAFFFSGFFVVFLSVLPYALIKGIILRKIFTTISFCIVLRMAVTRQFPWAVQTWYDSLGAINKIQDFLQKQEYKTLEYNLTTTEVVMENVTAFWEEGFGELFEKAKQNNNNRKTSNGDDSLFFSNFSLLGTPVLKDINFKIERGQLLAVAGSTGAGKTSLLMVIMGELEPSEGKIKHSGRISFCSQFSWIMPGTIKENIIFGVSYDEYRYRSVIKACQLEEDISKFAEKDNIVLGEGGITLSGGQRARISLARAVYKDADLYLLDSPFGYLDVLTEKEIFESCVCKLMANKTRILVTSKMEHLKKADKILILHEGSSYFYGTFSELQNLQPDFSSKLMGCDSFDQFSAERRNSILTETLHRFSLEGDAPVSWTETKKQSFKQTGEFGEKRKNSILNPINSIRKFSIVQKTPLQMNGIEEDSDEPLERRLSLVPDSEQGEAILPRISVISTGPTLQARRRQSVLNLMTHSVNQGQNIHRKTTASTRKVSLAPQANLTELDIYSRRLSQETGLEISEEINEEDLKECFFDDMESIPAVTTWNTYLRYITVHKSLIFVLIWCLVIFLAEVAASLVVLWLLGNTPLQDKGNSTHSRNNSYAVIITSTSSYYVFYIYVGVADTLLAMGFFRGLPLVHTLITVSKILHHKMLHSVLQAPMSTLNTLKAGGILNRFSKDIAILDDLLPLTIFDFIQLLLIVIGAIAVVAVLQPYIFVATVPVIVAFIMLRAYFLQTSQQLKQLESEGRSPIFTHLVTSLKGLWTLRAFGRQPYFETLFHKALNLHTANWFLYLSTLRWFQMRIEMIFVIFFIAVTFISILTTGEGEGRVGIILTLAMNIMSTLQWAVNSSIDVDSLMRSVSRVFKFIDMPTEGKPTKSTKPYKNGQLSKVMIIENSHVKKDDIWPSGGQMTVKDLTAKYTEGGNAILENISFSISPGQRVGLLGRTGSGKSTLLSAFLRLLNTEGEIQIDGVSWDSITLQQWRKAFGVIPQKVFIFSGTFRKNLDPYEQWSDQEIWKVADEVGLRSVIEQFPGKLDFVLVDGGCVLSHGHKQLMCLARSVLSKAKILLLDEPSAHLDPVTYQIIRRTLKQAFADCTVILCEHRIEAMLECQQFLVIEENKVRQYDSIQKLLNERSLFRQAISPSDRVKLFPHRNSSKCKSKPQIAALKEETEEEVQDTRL
Protocol: TruBind™ Back-Scattering Interferometry (BSI) (Molecular Sensing GmbH) can be used to determine binding constants of different compounds to CFTR-expressing cells.
HEK293 wild type CFTR and HEK293 control membrane fractions are used as 100 μg (total protein amount) aliquots in 50 mM Tris-HCl pH 7.5, 1 mM EDTA, 10% Glycerol+PIC and stored at −80° C.
The buffer used for the assays is 50 mM Tris-HCl pH 7.5, 1 mM EDTA with 1.2% DMSO. The refractive index of the assay buffer and the compound are matched and then a 2x serial dilution is done in polypropylene dilution reservoirs.
A thawed aliquot of HEK293.CFTRwt as well as a thawed aliquot of HEK293 control membrane fractions is diluted to 10 mL in 50 mM Tris-HCl pH 7.5, 1 mM EDTA with 1.2% DMSO. The refractive index of the assay buffer and the two membrane fractions are matched by adding water to the membrane fractions.
Compound and target are mixed 1:1 in 96-well PCR microtiter plates to a final volume of 150 μL and heat sealed with foil. The assays are allowed to incubate at room temperature for 4 hours before being run on the BSI instrument. Wells are pierced individually prior to sample injection and measurement of BSI signal (each well is analyzed in quadruplicates). […]
The final data for the difference curve is exported to Graphpad Prism® and analyzed using a one-site binding equation to determine a Kd for the assay. […]

T1 sequence (P13569 with tags, fused parts or gaps DEL508-508): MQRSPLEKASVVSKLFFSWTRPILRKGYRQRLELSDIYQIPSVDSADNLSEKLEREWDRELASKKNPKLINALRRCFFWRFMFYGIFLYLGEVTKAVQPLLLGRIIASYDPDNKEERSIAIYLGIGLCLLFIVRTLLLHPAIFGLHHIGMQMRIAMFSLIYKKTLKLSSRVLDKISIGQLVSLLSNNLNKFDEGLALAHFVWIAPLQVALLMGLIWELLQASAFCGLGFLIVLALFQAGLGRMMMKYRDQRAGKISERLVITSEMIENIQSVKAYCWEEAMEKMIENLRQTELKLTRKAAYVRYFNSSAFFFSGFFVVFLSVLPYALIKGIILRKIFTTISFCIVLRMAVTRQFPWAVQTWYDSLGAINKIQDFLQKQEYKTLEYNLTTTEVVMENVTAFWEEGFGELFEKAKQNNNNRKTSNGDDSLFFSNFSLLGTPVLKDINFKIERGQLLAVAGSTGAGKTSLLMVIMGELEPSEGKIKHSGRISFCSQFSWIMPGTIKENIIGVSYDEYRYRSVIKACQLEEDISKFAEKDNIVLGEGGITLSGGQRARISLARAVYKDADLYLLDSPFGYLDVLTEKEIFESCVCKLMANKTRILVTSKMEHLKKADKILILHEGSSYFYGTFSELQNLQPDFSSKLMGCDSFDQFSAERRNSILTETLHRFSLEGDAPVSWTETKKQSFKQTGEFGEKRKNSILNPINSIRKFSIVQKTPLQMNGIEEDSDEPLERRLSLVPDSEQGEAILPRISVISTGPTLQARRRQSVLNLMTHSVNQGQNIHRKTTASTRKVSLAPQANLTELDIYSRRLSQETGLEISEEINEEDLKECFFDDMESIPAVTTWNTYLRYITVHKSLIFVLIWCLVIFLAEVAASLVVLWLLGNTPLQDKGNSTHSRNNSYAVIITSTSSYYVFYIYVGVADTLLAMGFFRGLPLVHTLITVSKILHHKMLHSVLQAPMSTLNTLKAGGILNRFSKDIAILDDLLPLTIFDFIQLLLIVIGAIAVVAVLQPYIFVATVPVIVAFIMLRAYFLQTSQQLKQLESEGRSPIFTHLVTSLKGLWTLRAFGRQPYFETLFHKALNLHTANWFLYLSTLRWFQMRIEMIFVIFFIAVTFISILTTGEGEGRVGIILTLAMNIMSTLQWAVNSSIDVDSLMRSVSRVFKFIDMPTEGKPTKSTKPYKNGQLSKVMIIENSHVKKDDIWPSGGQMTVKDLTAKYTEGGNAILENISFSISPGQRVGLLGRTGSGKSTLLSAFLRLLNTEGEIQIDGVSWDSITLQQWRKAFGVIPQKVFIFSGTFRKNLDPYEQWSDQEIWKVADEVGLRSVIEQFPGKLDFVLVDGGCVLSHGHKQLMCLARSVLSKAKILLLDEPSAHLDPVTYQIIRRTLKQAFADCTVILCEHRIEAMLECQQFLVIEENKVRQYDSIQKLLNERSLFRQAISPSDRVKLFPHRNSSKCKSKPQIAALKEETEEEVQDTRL

Molecule: CC(C)(C)c1cc(C(C)(C)C)c(NC(=O)c2c[nH]c3ccccc3c2=O)cc1O [VX-770]
- therapeutic efficacy in patients (F508del-CFTR): no significant therapeutic efficacy

Molecule: gentamicin
- change in Nasal Potential Difference (NPD) values (CFTR): small changes

Molecule: COc1ccc2c(c1)O[C@@H](c1ccc(C(=O)O)cc1)C[C@H]2NC(=O)C1(c2ccc3c(c2)OC(F)(F)O3)CC1 [C1]
- Kd ([1]; binding to wild-type CFTR membrane fractions, control membrane fractions subtracted, one-site binding fit): 94.7 ± 26.5 nM
- binding affinity to the membrane fraction of CFTR (in words) ([1]; comment on Table 1): binding affinity similar to the known correctors acting on CFTR
